Laboratory results from the Kinase Knowledgebase extract (Sharma et al. 2016).
pIC50: −log10 of the molar value.

Legend:
[1] = target: EGFR (human) (UniProt P00533)
[2] = target: EGFR (Human), P00533 [T790M/L858R]; conditions: baf3
[3] = target: EGFR (human), P00533 [L858R]
[4] = target: EGFR (Human), P00533 [T790M/L858R]
[5] = target: EGFR (Human), P00533 [Assessment of EGFR-Del T790M Dependent Cell Proliferation in BaF3 Cells]
Sequence of EGFR (Human), P00533 [Assessment of EGFR-Del T790M Dependent Cell Proliferation in BaF3 Cells] (P00533 whole entry, looked up, stated change not applied): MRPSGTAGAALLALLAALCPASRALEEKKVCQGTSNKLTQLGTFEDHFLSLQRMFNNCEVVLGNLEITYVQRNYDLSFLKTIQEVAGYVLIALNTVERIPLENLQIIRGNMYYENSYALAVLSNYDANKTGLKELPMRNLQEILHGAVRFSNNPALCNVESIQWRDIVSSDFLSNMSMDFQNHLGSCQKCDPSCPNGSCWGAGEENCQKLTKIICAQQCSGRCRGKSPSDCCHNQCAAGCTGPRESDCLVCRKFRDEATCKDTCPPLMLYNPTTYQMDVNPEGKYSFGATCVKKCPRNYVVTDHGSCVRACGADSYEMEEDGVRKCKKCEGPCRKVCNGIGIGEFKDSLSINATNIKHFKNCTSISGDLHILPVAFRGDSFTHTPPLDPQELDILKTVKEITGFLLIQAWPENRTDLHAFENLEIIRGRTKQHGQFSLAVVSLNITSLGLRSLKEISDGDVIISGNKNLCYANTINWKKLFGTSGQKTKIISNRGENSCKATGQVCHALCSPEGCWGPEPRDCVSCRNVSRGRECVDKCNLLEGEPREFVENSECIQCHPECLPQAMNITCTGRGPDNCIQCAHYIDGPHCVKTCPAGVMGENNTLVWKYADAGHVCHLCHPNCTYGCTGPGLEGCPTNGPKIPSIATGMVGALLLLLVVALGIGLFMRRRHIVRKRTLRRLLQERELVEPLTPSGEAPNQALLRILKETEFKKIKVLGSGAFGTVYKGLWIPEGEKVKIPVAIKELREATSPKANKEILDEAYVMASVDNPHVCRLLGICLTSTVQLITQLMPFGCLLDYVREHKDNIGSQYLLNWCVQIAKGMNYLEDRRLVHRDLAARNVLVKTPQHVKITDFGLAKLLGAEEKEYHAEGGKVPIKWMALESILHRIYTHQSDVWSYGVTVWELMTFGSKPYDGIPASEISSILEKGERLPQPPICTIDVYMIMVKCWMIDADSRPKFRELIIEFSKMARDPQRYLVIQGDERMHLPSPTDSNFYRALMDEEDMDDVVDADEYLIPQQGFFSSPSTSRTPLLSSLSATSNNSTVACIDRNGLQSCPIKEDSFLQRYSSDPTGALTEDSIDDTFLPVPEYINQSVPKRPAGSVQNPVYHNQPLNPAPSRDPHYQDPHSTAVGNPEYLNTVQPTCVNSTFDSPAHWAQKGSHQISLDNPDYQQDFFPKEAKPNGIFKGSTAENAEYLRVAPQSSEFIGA

Sequence of EGFR (human) (P00533 whole entry, looked up): as the sequence (P00533 whole entry, looked up, stated change not applied) above
Sequence of EGFR (Human), P00533 [T790M/L858R] (P00533 whole entry T790M/L858R, looked up): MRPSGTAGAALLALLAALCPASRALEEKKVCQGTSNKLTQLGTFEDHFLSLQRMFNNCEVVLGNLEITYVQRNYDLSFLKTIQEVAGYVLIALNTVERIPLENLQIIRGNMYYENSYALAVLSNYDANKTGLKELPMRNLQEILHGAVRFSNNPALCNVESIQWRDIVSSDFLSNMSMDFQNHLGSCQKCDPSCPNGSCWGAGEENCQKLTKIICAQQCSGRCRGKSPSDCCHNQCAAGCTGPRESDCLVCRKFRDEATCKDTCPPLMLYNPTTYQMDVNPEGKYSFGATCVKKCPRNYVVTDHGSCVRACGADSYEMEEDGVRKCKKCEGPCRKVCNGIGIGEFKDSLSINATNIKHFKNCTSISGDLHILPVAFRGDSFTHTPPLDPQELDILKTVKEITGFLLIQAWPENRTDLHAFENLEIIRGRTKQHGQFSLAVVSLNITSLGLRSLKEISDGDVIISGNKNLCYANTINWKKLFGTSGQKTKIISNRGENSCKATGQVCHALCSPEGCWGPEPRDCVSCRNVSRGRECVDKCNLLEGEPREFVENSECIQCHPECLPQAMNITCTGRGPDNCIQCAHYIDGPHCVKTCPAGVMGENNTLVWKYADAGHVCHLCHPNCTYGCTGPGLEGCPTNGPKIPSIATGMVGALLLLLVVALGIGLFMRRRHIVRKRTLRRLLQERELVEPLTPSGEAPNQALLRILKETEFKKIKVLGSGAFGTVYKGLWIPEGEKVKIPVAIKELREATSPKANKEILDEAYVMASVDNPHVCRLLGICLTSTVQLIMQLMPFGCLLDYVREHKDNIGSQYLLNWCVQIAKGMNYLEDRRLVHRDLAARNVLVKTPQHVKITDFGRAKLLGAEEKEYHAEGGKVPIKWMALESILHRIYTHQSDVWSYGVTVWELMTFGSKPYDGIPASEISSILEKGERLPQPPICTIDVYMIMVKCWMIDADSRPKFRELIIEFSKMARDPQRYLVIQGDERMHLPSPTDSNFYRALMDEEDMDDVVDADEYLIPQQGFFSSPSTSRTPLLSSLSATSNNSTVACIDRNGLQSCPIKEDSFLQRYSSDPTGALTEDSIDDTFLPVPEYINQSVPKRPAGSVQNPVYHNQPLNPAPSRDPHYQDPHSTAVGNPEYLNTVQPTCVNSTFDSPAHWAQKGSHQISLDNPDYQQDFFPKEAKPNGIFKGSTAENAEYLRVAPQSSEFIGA
Sequence of EGFR (human), P00533 [L858R] (P00533 whole entry L858R, looked up): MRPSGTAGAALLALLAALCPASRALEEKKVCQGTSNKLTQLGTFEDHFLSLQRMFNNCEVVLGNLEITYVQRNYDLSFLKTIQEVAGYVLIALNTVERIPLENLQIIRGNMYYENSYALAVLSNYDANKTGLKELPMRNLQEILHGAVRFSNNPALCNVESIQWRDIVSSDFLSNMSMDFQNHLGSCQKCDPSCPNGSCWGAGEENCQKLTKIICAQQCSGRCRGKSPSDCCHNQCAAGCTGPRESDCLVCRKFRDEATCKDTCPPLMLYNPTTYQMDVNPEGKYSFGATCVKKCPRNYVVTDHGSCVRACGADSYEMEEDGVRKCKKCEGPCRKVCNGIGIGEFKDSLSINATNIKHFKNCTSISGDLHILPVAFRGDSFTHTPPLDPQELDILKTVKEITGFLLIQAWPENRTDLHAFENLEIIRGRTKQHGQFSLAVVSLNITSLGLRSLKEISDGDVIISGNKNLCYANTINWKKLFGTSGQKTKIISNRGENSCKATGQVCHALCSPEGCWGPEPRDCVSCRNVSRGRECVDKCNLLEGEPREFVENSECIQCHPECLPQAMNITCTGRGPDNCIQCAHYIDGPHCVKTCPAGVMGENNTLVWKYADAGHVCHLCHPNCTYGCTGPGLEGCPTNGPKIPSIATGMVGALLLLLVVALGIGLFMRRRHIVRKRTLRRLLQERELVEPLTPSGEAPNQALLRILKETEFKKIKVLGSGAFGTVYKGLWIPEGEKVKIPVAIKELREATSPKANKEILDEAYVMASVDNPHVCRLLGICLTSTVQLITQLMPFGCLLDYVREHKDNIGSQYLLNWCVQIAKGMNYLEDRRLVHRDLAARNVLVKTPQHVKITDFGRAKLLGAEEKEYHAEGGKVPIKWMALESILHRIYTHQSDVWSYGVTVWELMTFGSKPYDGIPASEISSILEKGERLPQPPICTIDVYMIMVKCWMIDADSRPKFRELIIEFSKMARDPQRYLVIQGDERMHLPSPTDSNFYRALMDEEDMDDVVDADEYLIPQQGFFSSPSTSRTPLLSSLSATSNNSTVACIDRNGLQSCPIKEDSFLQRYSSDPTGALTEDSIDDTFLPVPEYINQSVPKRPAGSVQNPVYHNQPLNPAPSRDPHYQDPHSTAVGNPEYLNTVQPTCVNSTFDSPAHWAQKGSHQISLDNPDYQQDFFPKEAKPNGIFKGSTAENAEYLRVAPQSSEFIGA

Row | Structure (SMILES) | pIC50 [1] | pIC50 [2] | pIC50 [3] | pIC50 [4] | pIC50 [5]
1 | C=CC(=O)Nc1cc(Nc2ncc(Cl)c(Nc3ccccc3P(C)(C)=O)n2)c(OC)cc1OC1CCN(C)C1 (stereo not given) | > 7.30 | > 7.30 | > 7.30 | > 7.30 | > 7.30
2 | C=CC(=O)Nc1cc(Nc2ncc(Cl)c(Nc3ccc(OCCN4CCCC4)cc3P(C)(C)=O)n2)c(OC)cc1F | > 7.30 | > 7.30 | > 7.30 | > 7.30 | > 7.30
3 | C=CC(=O)Nc1cc(Nc2ncc(Cl)c(Nc3ccccc3P(C)(C)=O)n2)c(OC)cc1N1CCC(N2CCC2)C1 (stereo not given) | > 7.30 | > 7.30 | > 7.30 | > 7.30 | > 7.30
4 | C=CC(=O)Nc1cc(Nc2ncc(C3CC3)c(Nc3ccccc3P(C)(C)=O)n2)c(OC)cc1N(C)CCN(CC)CC | > 7.30 | > 7.30 | > 7.30 | > 7.30 | > 7.30
5 | C=CC(=O)Nc1cc(Nc2ncc(Cl)c(Nc3ccccc3P(C)(C)=O)n2)c(OC)cc1N1CCC(N(C)CCN(CC)CC)C1 (stereo not given) | > 7.30 | 6.60 to 7.00 | > 7.30 | > 7.30 | > 7.30
6 | C=CC(=O)Nc1ccc(OC)c(Nc2ncc(Cl)c(Nc3ccc(OCCN(C)C)cc3P(C)(C)=O)n2)c1 | > 7.30 | > 7.30 | > 7.30 | > 7.30 | > 7.30
7 | C=C(CN1CCCC1)C(=O)Nc1ccc(OC)c(Nc2ncc(Cl)c(Nc3ccccc3P(C)(C)=O)n2)c1 | > 7.30 | > 7.30 | > 7.30 | > 7.30 | > 7.30
8 | C=CC(=O)Nc1cc(Nc2ncc(Cl)c(Nc3ccccc3P(C)(C)=O)n2)c(OC)cc1CN1CCN(C)CC1 | > 7.30 | 7.00 to 7.30 | > 7.30 | > 7.30 | > 7.30
9 | C=CC(=O)Nc1cc(Nc2ncc(Cl)c(Nc3ccccc3P(C)(C)=O)n2)c(OC)cc1C#CC(C)(C)N1CCCC1 | 7.00 to 7.30 | > 7.30 | > 7.30 | > 7.30 | > 7.30
10 | C=C(CN1CCC(O)C1)C(=O)Nc1ccc(OC)c(Nc2ncc(Cl)c(Nc3ccccc3P(C)(C)=O)n2)c1 (stereo not given) | > 7.30 | > 7.30 | > 7.30 | > 7.30 | > 7.30
11 | C=CC(=O)Nc1cc(Nc2ncc(Cl)c(Nc3ccccc3P(C)(C)=O)n2)c(OC)cc1OC(CF)CN(CC)CC (stereo not given) | > 7.30 | > 7.30 | > 7.30 | > 7.30 | > 7.30
12 | C=CC(=O)Nc1cc(Nc2ncc(Cl)c(Nc3ccccc3P(C)(C)=O)n2)c(OC)cc1OC(COC)CN1CCC1 (stereo not given) | > 7.30 | > 7.30 | > 7.30 | > 7.30 | > 7.30
13 | C=CC(=O)Nc1ccc(OC)c(Nc2ncc(Cl)c(Nc3ccc(OCCN4CCCCC4)cc3P(C)(C)=O)n2)c1 | > 7.30 | > 7.30 | > 7.30 | > 7.30 | > 7.30
14 | CC#CC(=O)Nc1cc(Nc2ncc(Cl)c(Nc3ccccc3P(C)(C)=O)n2)c(OC)cc1N1CCC(N2CCN(C)CC2)CC1 | 7.00 to 7.30 | > 7.30 | > 7.30 | > 7.30 | > 7.30
15 | C=CC(=O)Nc1cc(Nc2ncc(Cl)c(Nc3ccccc3P(C)(C)=O)n2)c(OC)cc1N1CCC(N2CCCN(C)CC2)CC1 | > 7.30 | 6.60 to 7.00 | > 7.30 | > 7.30 | 7.00 to 7.30
16 | COc1cc(C)c(NC(=O)CCl)cc1Nc1ncc(Cl)c(Nc2ccccc2P(C)(C)=O)n1 | > 7.30 | > 7.30 | > 7.30 | > 7.30 | > 7.30
17 | COc1cc(C)c(NC(=O)CCl)cc1Nc1ncc(C)c(Nc2ccccc2P(C)(C)=O)n1 | > 7.30 | > 7.30 | > 7.30 | > 7.30 | > 7.30
18 | COc1cc(F)c(NC(=O)C#CCN(C)C)cc1Nc1ncc(Cl)c(Nc2ccccc2P(C)(C)=O)n1 | > 7.30 | > 7.30 | > 7.30 | > 7.30 | > 7.30
19 | C=CC(=O)Nc1cc(Nc2ncc(Cl)c(Nc3ccccc3P(C)(C)=O)n2)c(OC)cc1OC(COC)CN(C)C (stereo not given) | > 7.30 | > 7.30 | > 7.30 | > 7.30 | > 7.30
20 | C=CC(=O)Nc1cc(Nc2ncc(Cl)c(Nc3ccccc3S(=O)(=O)C(C)C)n2)c(OC)cc1C#CCN(C)C | > 7.30 | > 7.30 | > 7.30 | > 7.30 | > 7.30
21 | C=CC(=O)Nc1cc(Nc2ncc(Cl)c(Nc3ccccc3P(C)(C)=O)n2)c(OC)cc1C | > 7.30 | > 7.30 | > 7.30 | > 7.30 | > 7.30

Further lines, results first:

Row | pIC50 [1] | pIC50 [2] | pIC50 [3] | pIC50 [4] | pIC50 [5] | Structure (SMILES)
22 | > 7.30 | > 7.30 | > 7.30 | > 7.30 | > 7.30 | COCC1CCCN1CCC#CC(=O)Nc1cc(Nc2ncc(Cl)c(Nc3ccccc3P(C)(C)=O)n2)c(OC)cc1N1CCOCC1 (stereo not given)
23 | > 7.30 | > 7.30 | > 7.30 | > 7.30 | > 7.30 | C=C(CN1CCOCC1)C(=O)Nc1ccc(OC)c(Nc2ncc(Cl)c(Nc3ccccc3P(C)(C)=O)n2)c1
24 | > 7.30 | 6.60 to 7.00 | > 7.30 | > 7.30 | > 7.30 | C=C(Cl)C(=O)Nc1ccc(OC)c(Nc2ncc(Cl)c(Nc3ccccc3P(C)(C)=O)n2)c1
25 | > 7.30 | > 7.30 | > 7.30 | > 7.30 | > 7.30 | COc1ccc(NC(=O)CCl)cc1Nc1ncc(Cl)c(Nc2ccccc2P(C)(C)=O)n1
26 | > 7.30 | > 7.30 | > 7.30 | > 7.30 | > 7.30 | COc1cc(N2CCOCC2)c(NC(=O)C#CCCN(C)C)cc1Nc1ncc(Cl)c(Nc2ccccc2P(C)(C)=O)n1
27 | > 7.30 | > 7.30 | > 7.30 | > 7.30 | > 7.30 | C=CC(=O)Nc1cc(Nc2ncc(Cl)c(Nc3ccccc3P(C)(C)=O)n2)c(OC)cc1C#CCN(C)CC
28 | > 7.30 | > 7.30 | > 7.30 | > 7.30 | > 7.30 | C=CC(=O)Nc1cc(Nc2ncc(Cl)c(Nc3ccccc3P(C)(C)=O)n2)c(C)cc1OC(COC)CN(C)C (stereo not given)
29 | > 7.30 | > 7.30 | > 7.30 | > 7.30 | > 7.30 | COc1cc(N2CCOCC2)c(NC(=O)C#CCCN2CCN(C)CC2)cc1Nc1ncc(Cl)c(Nc2ccccc2P(C)(C)=O)n1
30 | > 7.30 | > 7.30 | > 7.30 | > 7.30 | > 7.30 | C=CC(=O)Nc1cc(Nc2ncc(Cl)c(Nc3ccccc3P(C)(C)=O)n2)c(OC)cc1C#CCN(C)C(C)C
31 | > 7.30 | > 7.30 | > 7.30 | > 7.30 | > 7.30 | C=CC(=O)Nc1cc(Nc2ncc(Cl)c(Nc3ccccc3P(C)(C)=O)n2)c(CC)cc1C#CCN(C)C
